# System: lashes and adjacent hairs
# Assay: Clinical observation of lashes and adjacent hairs in glaucoma patients treated in one eye
# Assay type: in vivo
# From the text: In the course of treating patients having glaucoma, treatment may only be appropriate in one eye. […] The lash appearance on the lids of the treated eyes would have appeared quite attractive if it represented a bilateral phenomenon. As a result of its asymmetric nature, the long lashes on one side could be construed as disturbing from a cosmetic standpoint. A systemic examination was preformed as a result of the asymmetric phenomenon. It soon became apparent that this altered appearance was not an isolated finding. […] Definite differences could be identified to varying degrees in the lashes and adjacent hairs of all patients who were taking the drug on a unilateral basis for longer than 6 months.
# The changes in the lashes were apparent on gross inspection in several patients once attention was focused on the issue. In those with light colored hair and lashes, the differences were only seen easily with the aid of the high magnification and lighting capabilities of the slit lamp biomicroscope. In the course of glaucoma follow-up examination, attention is generally immediately focused on the eye itself. As a result of the high power magnification needed only one eye is seen at a time and the eye is seen at a high enough power that the lashes are not in focus. […]
compound,measurement,setting,value
CCNC(=O)CCC/C=C\C[C@@H]1[C@@H](/C=C/[C@@H](O)CCc2ccccc2)[C@H](O)C[C@@H]1O [bimatoprost],lash appearance in the treated eye versus the non-treated eye,glaucoma patient treated in one eye only,"longer, thicker, and fuller"
same,hair growth in treated versus control areas,"multiple parameters of hair appearance, many subjects",stimulated

# — patent US7713967B2, “Therapeutic substituted hydantoins, and related compounds” (Allergan, Inc., priority 2008, dated 2010)
